Columns and labels:
human salivary α-amylase [1] = biological target: T1, human salivary α-amylase (Homo sapiens, UniProt P0DUB6); assay: enzyme inhibition with amylose substrate, DNS readout after SPE; plateau at […] inhibition at […]; type: biochemical
T1 construct: gene AMY1A; human salivary α-amylase type IX-A (Sigma-Aldrich)
T1 sequence (P0DUB6 16-511): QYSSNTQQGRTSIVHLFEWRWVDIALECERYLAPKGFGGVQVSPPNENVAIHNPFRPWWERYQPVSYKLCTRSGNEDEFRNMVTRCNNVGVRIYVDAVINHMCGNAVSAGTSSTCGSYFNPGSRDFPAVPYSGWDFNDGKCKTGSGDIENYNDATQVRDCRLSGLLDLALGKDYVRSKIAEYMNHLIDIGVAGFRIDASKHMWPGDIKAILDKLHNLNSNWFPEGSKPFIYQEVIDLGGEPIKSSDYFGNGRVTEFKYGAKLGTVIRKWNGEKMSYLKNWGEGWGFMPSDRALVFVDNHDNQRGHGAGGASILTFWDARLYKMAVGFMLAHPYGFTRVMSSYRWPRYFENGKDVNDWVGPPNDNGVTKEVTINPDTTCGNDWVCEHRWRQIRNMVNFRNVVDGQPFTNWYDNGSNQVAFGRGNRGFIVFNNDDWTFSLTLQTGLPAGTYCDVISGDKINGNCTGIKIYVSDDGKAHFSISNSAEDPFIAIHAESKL

human salivary α-amylase [2] = biological target: T1, human salivary α-amylase; assay: enzyme inhibition with amylose substrate, DNS readout after SPE; very weak; type: biochemical

SMILES | inhibition at 600 µM (human salivary α-amylase [1]) [%] | inhibition at 5000 µM (human salivary α-amylase [2]) [%]
COc1ccc(C=CC(=O)O)cc1OC [3,4-dimethoxycinnamic acid] | 32 | –
O=C(/C=C/c1ccc(O)c(O)c1)O[C@@H]1C[C@](O)(C(=O)O)C[C@@H](O)[C@H]1O [5-CQA, 5-caffeoylquinic acid] | – | 20.5

Reference: article PMC6143438, “Chlorogenic and phenolic acids are only very weak inhibitors of human salivary α-amylase and rat intestinal maltase activities” (Food Research International (Ottawa, Ont.), 2018)
